We go through 21 compounds from US12110293B2, “Substituted triazolo quinoxaline derivatives” (GRÜNENTHAL GMBH, priority 2018, dated 2024).

SMILES strings stand for the structures. Some results are limits rather than exact numbers.

The target in the experiment is T1, glucocorticoid receptor (Homo sapiens, UniProt P04150).
T1 construct: expressed in transfected cells
T1 sequence (P04150 524-758 limits assumed): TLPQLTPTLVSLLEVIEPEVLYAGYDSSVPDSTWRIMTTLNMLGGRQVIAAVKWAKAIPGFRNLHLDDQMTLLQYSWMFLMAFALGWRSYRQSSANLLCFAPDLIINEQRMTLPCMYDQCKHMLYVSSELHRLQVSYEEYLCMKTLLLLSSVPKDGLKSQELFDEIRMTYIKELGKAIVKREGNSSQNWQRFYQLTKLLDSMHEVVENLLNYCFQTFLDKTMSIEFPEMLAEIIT
Put plainly: Agonistic mode of action on the glucocorticoid receptor (CHO-Gal4/GR luciferase reporter cell line). Format: cell-based. As to conditions: range class observed in the agonistic assay or the antagonistic assay (CHO-Gal4/GR reporter cells); table does not say which mode applies per example. The text has this:
Potential selective glucocorticoid receptor modulators of this intervention can be tested for modulation of the activity of the glucocorticoid receptor using cell-based assays. These assays involve a Chinese hamster ovary (CHO) cell line which contains fragments of the glucocorticoid receptor as well as fusion proteins. The glucocorticoid receptor fragments used are capable of binding the ligand (e.g. beclomethasone) to identify molecules that compete for binding with glucocorticoid receptor ligands. In more detail, the glucocorticoid receptor ligand binding domain is 25 fused to the DNA binding domain (DBD) of the transcriptionfactor GAL4 (GAL4 DBD-GR) and is stably integrated into a CHO cell line containing a GAL4-UAS-Luciferase reporter construct. […] After cell lysis the luminescence that is produced by luciferase after addition of the substrate is detected and EC50 or IC50 values can be calculated. Engagement of molecules which induce gene expression via glucocortocoid receptor binding to the DNA leads to expression of the luciferase gene under the control of the fusion protein GAL4 DBD-GR and therefore to a dose-dependent increase of the luminescence signal. Binding of molecules which repress beclomethasone-induced gene expression of the luciferase gene under the control of the fusion protein GAL4 DBD-GR leads to a dose-dependent reduction of the luminescence signal.
Biological Assays Agonistic Mode of Action on the Glucocorticoid Receptor
The reporter cell line CHO-Gal4/GR consisted of a Chinese hamster ovary (CHO) cell line (Leibniz Institute DSMZ—German Collection of Microorganisms and Cell CuItures GmbH: ACC-110) containing a firefly luciferase gene under the control of the GR ligand binding domain fused to the DNA binding domain (DBD) of GAL4 (GAL4 DBD-GR) stably integrated into CHO cells. This cell line was established by stable transfection of CHO cells with a GAL4-UAS-Luciferase reporter construct. In a subsequent step the ligand binding domain of the GR cloned into pIRES2-EGFP-GAL4 containing the DNA binding domain of GAL4 from pFA-AT2 was transfected. This fusion construct activated firefly luciferase expression under the control of a multimerized GAL4 upstream activation sequence (UAS). The signal of the emitted luminescence was recorded by the FLIPR^TETRA. This allowed for specific detection of ligand-induced activation of the GR and therefore for the identification of compounds with agonistic properties. The GAL4/UAS reporter was premixed with a vector that constitutively expressed Renilla luciferase, which served as an internal positive control for transfection efficiency.
The complete culture medium for the assay was: • DMEM F-12 (1:1) MIXTURE (LONZA cat. N°: BE04-687F/U1) 500 mL • 5 mL of 100 mM Sodium Pyruvate (LONZA cat. N°: BE12-115E) • 25 mL of 7.5% Sodium Bicarbonate (LONZA cat. N° BE17-613E) • 6.5 mL of 1 M Hepes (LONZA cat. N°: BE17-737E) • 5 mL of 100× Penicillin/Streptomycin (LONZA cat. N° DE17-602E) • 50 mL of Fetal Bovine Serum (Euroclone cat. N° ECS 0180L) • 0.25 mL of 10 mg/mL Puromycin (InvivoGen cat.: ant-pr-1) • 0.5 mL of 100 mg/mL Zeocin (InvivoGen cat.: ant-zn-1)
Cryo-preserved CHO-Gal4/GR cells were suspended in complete medium and 5000 cells/25 μl/well were seeded into the wells of 384-well polystyrene assay plates (Thermo Scientific, cat. #4332) and cultured at 37° C., 5% CO2 and 95% humidity. After 24 hours growth medium was carefully removed and replaced by 30 μl Opti-MEM (GIBCO, cat. #31985062) as assay buffer. To test the compounds an 8-point half-log compound dilution curve was generated in 100% DMSO starting from a 2 mM stock and compounds were then diluted 1:50 in Opti-MEM. 10 μl of compounds were then added to the wells containing 30 μl Opti-MEM resulting in a final assay concentration range from 10 μM to 0.003 μM in 0.5% DMSO. Compounds were tested at 8 concentrations in quadruplicate data points.
(Reporter assays use an easily measured gene product as a stand-in for the process of interest.)
As to `Cc1nnc2n1-c1c(cc(F)c(-c3cc(F)cc4[nH]ccc34)c1F)NC2(C)C` [Example 1, 7,9-difluoro-8-(6-fluoro-1H-indol-4-yl)-1,4,4-trimethyl-4,5-dihydro-[1,2,4]triazolo[4,3-a]quinoxaline], the IC50 or EC50 (agonist or antagonist mode not specified) was < 100 nM. Consider `Cc1nnc2n1-c1c(cc(F)c(-c3cc(F)cc4c3ccn4C3CC3)c1F)NC2(C)C` [Example 2, 8-(1-cyclopropyl-6-fluoro-1H-indol-4-yl)-7,9-difluoro-1,4,4-trimethyl-4,5-dihydro-[1,2,4]triazolo[4,3-a]quinoxaline], for which the IC50 or EC50 (agonist or antagonist mode not specified) was < 100 nM. Turning to `Cc1nnc2n1-c1c(cc(F)c(-c3cc(F)cc4c3ccn4S(C)(=O)=O)c1F)NC2(C)C` [Example 3, 7,9-difluoro-8-(6-fluoro-1-(methylsulfonyl)-1H-indol-4-yl)-1,4,4-trimethyl-4,5-dihydro-[1,2,4]triazolo[4,3-a]quinoxaline], the IC50 or EC50 (agonist or antagonist mode not specified) is < 100 nM.

For `CC(=O)n1ccc2c(-c3c(F)cc4c(c3F)-n3c(C)nnc3C(C)(C)N4)cc(F)cc21` [Example 4, 1-(4-(7,9-difluoro-1,4,4-trimethyl-4,5-dihydro-[1,2,4]triazolo[4,3-a]quinoxalin-8-yl)-6-fluoro-1H-indol-1-yl)ethanone], the IC50 or EC50 (agonist or antagonist mode not specified) was < 100 nM. As to `Cc1cc2c(-c3c(F)cc4c(c3F)-n3c(C)nnc3C(C)(C)N4)cc(F)cc2[nH]1` [Example 5, 7,9-difluoro-8-(6-fluoro-2-methyl-1H-indol-4-yl)-1,4,4-trimethyl-4,5-dihydro-[1,2,4]triazolo[4,3-a]quinoxaline], the IC50 or EC50 (agonist or antagonist mode not specified) was in the range of 100 to 1000 nM. With `Cc1nnc2n1-c1c(cc(F)c(-c3cc(F)cc4[nH]c(C#N)cc34)c1F)NC2(C)C` [Example 6, 4-(7,9-difluoro-1,4,4-trimethyl-4,5-dihydro-[1,2,4]triazolo[4,3-a]quinoxalin-8-yl)-6-fluoro-1H-indole-2-carbonitrile], the IC50 or EC50 (agonist or antagonist mode not specified) is 1000 to 15000 nM. For `Cc1nnc2n1-c1c(cc(F)c(-c3cccc4cc[nH]c34)c1F)NC2(C)C` [Example 9, 7,9-difluoro-8-(1H-indol-7-yl)-1,4,4-trimethyl-4,5-dihydro-[1,2,4]triazolo[4,3-a]quinoxaline], the IC50 or EC50 (agonist or antagonist mode not specified) was in the range of 100 to 1000 nM.

`Cc1nnc2n1-c1c(cc(F)c(-c3cccc4c(C(F)(F)F)c[nH]c34)c1F)NC2(C)C` [Example 10, 7,9-difluoro-1,4,4-trimethyl-8-(3-(trifluoromethyl)-1H-indol-7-yl)-4,5-dihydro-[1,2,4]triazolo[4,3-a]quinoxaline]: the IC50 or EC50 (agonist or antagonist mode not specified) is 100 to 1000 nM. `CCc1nnc2n1-c1c(cc(F)c(-c3cccc4cc[nH]c34)c1F)NC2(C)C` [Example 11, 1-ethyl-7,9-difluoro-8-(1H-indol-7-yl)-4,4-dimethyl-4,5-dihydro-[1,2,4]triazolo[4,3-a]quinoxaline] returned an IC50 or EC50 (agonist or antagonist mode not specified) of 100 to 1000 nM. Consider `CCc1nnc2n1-c1c(cc(F)c(-c3cccc4c(C#N)c[nH]c34)c1F)NC2(C)C` [Example 12, 7-(T-ethyl-7,9-difluoro-4,4-dimethyl-4,5-dihydro-[1,2,4]triazolo[4,3-a]quinoxalin-8-yl)-1H-indole-3-carbonitrile], for which the IC50 or EC50 (agonist or antagonist mode not specified) fell in the range of 1000 to 15000 nM.

`CC#Cc1c[nH]c2c(-c3c(F)cc4c(c3F)-n3c(CC)nnc3C(C)(C)N4)cccc12` [Example 13, 1-ethyl-7,9-difluoro-4,4-dimethyl-8-(3-(prop-1-yn-1-yl)-1H-indol-7-yl)-4,5-dihydro-[1,2,4]triazolo[4,3-a]quinoxaline] returned an IC50 or EC50 (agonist or antagonist mode not specified) of 100 to 1000 nM. The compound `CCc1nnc2n1-c1c(cc(F)c(-c3cc(F)cc4c(C#N)c[nH]c34)c1F)NC2(C)C` [Example 15, 7-(1-ethyl-7,9-difluoro-4,4-dimethyl-4,5-dihydro-[1,2,4]triazolo[4,3-a]quinoxalin-8-yl)-5-fluoro-1H-indole-3-carbonitrile] gave an IC50 or EC50 (agonist or antagonist mode not specified) of 1000 to 15000 nM. Compound `CC#Cc1c[nH]c2c(-c3c(F)cc4c(c3F)-n3c(CC)nnc3C(C)(C)N4)cc(F)cc12` [Example 16, 1-ethyl-7,9-difluoro-8-(5-fluoro-3-(prop-1-yn-1-yl)-1H-indol-7-yl)-4,4-dimethyl-4,5-dihydro-[1,2,4]triazolo[4,3-a]quinoxaline] showed an IC50 or EC50 (agonist or antagonist mode not specified) of 100 to 1000 nM. With `CCc1nnc2n1-c1c(cc(F)c(-c3cc(C)cc4c(C#N)c[nH]c34)c1F)NC2(C)C` [Example 17, 7-(1-ethyl-7,9-difluoro-4,4-dimethyl-4,5-dihydro-[1,2,4]triazolo[4,3-a]quinoxalin-8-yl)-5-methyl-1H-indole-3-carbonitrile] the figure was 100 to 1000 nM; with `CCS(=O)(=O)n1ccc2c(-c3c(F)cc4c(c3F)-n3c(C)nnc3C(C)(C)N4)cc(F)cc21` [Example 18, 8-(1-(ethylsulfonyl)-6-fluoro-1H-indol-4-yl)-7,9-difluoro-1,4,4-trimethyl-4,5-dihydro-[1,2,4]triazolo[4,3-a]quinoxaline], 100 to 1000 nM. The compound `Cc1nnc2n1-c1c(cc(F)c(-c3cc(F)cc4c3ccn4S(=O)(=O)C3CC3)c1F)NC2(C)C` [Example 19, 8-(1-(cyclopropylsulfonyl)-6-fluoro-1H-indol-4-yl)-7,9-difluoro-1,4,4-trimethyl-4,5-dihydro-[1,2,4]triazolo[4,3-a]quinoxaline] yielded an IC50 or EC50 (agonist or antagonist mode not specified) of 100 to 1000 nM. The compound `CC(=O)n1ccc2c(-c3c(F)cc4c(c3F)-n3c(C)nnc3C(C)(C)N4)cccc21` [Example 20, 1-(4-(7,9-difluoro-1,4,4-trimethyl-4,5-dihydro-[1,2,4]triazolo[4,3-a]quinoxalin-8-yl)-1H-indol-1-yl)ethanone] displayed an IC50 or EC50 (agonist or antagonist mode not specified) of 100 to 1000 nM. With `Cc1nnc2n1-c1c(cc(F)c(-c3cc(F)cc4c3ccn4CC(F)(F)F)c1F)NC2(C)C` [Example 21, 7,9-difluoro-8-(6-fluoro-1-(2,2,2-trifluoroethyl)-1H-indol-4-yl)-1,4,4-trimethyl-4,5-dihydro-[1,2,4]triazolo[4,3-a]quinoxaline] the figure was 100 to 1000 nM.

Regarding `Cc1nnc2n1-c1c(cc(F)c(-c3cccc4c3ccn4S(C)(=O)=O)c1F)NC2(C)C` [Example 22, 7,9-difluoro-1,4,4-trimethyl-8-(1-(methylsulfonyl)-1H-indol-4-yl)-4,5-dihydro-[1,2,4]triazolo[4,3-a]quinoxaline], the IC50 or EC50 (agonist or antagonist mode not specified) is 100 to 1000 nM. As for `Cc1c(-c2cc(F)cc3c(CC(F)(F)F)c[nH]c23)c(F)cc2c1-n1c(C)nnc1C(C)(C)N2` [Example 23, 7-fluoro-8-(5-fluoro-3-(2,2,2-trifluoroethyl)-1H-indol-7-yl)-1,4,4,9-tetramethyl-4,5-dihydro-[1,2,4]triazolo[4,3-a]quinoxaline], the IC50 or EC50 (agonist or antagonist mode not specified) is < 100 nM.

In the case of `Cc1c(-c2cccc3c(CC(F)(F)F)c[nH]c23)c(F)cc2c1-n1c(C)nnc1C(C)(C)N2` [Example 24, 7-fluoro-1,4,4,9-tetramethyl-8-(3-(2,2,2-trifluoroethyl)-1H-indol-7-yl)-4,5-dihydro-[1,2,4]triazolo[4,3-a]quinoxaline], the IC50 or EC50 (agonist or antagonist mode not specified) was < 100 nM.
